Data taken from article PMC7527723, “Sex Steroids Induce Membrane Stress Responses and Virulence Properties in Pseudomonas aeruginosa” (mBio, 2020).

T1: Pseudomonas aeruginosa MucB protein (Pseudomonas aeruginosa, UniProt P38108 22-316)
T1 sequence: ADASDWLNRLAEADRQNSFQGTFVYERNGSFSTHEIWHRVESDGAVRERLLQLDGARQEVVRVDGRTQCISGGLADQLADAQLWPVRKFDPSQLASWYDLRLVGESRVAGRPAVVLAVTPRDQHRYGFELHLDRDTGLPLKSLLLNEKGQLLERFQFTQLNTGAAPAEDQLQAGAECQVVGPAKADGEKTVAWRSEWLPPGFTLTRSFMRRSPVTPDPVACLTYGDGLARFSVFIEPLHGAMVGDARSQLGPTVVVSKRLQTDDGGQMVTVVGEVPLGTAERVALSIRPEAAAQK


Tests used:
[1] = target: T2, Vfr (Pseudomonas aeruginosa, UniProt P55222); test: biochemical; assay type: binding
T2 construct: purified protein
T2 sequence (P55222 whole entry): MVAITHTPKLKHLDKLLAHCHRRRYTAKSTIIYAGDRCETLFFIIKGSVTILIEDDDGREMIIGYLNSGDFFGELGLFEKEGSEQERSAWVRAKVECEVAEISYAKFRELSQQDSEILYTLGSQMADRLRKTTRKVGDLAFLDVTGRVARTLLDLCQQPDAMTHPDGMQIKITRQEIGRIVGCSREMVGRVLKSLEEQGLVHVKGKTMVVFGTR

[2] = target: T1, Pseudomonas aeruginosa MucB protein; test: SPR; purified MucB subjected to MucA binding (control); which partner was immobilised, buffer and temperature are not told in the text shown; details: both partners purified

Row | Molecule | Kd [1] | Kd [2]
1 | C[C@]12CC[C@H]3[C@@H](CCC4=CC(=O)CC[C@@]43C)[C@@H]1CC[C@@H]2O [T, testosterone] | 1700 to 1800 µM | –
2 | C[C@]12CC[C@@H]3c4ccc(O)cc4CC[C@H]3[C@@H]1C[C@@H](O)[C@@H]2O [E3, estriol] | 750 to 782 µM | –
3 | MucA (natural protein, also called anti-sigma factor) YNQNDALPQMAQQGTTPQIALPQVKGPAVLAGYSEEQGAPQVITNSSSSDTRWHEQRLPIYLRQHVQQSAVSGTESALPYARAASLENR | – | 2.93 µM
